{"source": "patent US20230023935A1", "about": "“USE OF MASITINIB FOR THE TREATMENT OF EOSINOPHILIC ASTHMA” (AB SCIENCE, priority 2019, published 2023)", "system": "subjects with severe persistent asthma treated with oral corticosteroids", "assay": "Phase 3 study AB07015: masitinib 6 mg/kg/day versus placebo, severe asthma exacerbations by baseline blood eosinophil cohort", "assay_type": "in vivo, human", "details": "for Rate ratio (Estimate) for asthma exacerbations: Poisson regression", "protocol": "A prospective, multicenter, randomized, double-blind, placebo-controlled, 2-parallel groups, phase 3 study was carried out to compare the efficacy and the safety of masitinib at 6 mg/kg/day versus placebo in the treatment of subjects with severe persistent asthma treated with oral corticosteroids. Said clinical trial (reference AB07015) is registered under the EudraCT number: 2010-020803-63 and under the ClinicalTrials.gov identifier: NCT01449162. Patients were randomized in two groups with a masitinib to placebo randomization ratio of 2:1, respectively: • Group 1: patients receiving masitinib at 6 mg/kg/day; • Group 2: patients receiving placebo. […] According to the statistical analysis plan of study AB07015 (version 1.0 dated 18 Oct. 2019), the overall assessable population was defined as: ‘all patients in full analysis set (FAS) with severe asthma already treated with oral corticosteroids at a minimal daily dose of greater than 5 mg prednisone or equivalent for at least 3 months prior to screening.’ Subgroup analyses were performed with cohort categorization of severe asthma patients according to eosinophil blood count at baseline. The primary efficacy endpoint was defined as the severe asthma exacerbation rate adjusted on the available person-time (time to end of treatment) on full exposure (main period+extension/weaning period). The rate of severe asthma exacerbations was analyzed by applying a Poisson regression (log-link function and Poisson distribution) model. Because eosinophilic inflammation is correlated with asthma severity, it was of interest to perform subgroup analyses according to blood eosinophil levels. Table 2 below presents the results regarding masitinib treatment effect with respect to placebo (rate ratio for asthma exacerbations requiring steroid therapy) in various blood eosinophil level-defined cohorts, and their complement cohorts (according to the primary efficacy analysis population). The rate of asthma exacerbations is analyzed using Poisson regression with treatment group (masitinib, placebo) as the primary variable (covariate) of interest.", "key": {"[1]": {"details": "masitinib 6 mg/kg/day oral, blood eosinophils equal to or higher than 150 cells/μL (M: 181)"}, "[2]": {"details": "masitinib 6 mg/kg/day oral, blood eosinophils equal to or lower than 300 cells/μL (M: 145)"}, "[3]": {"details": "masitinib 6 mg/kg/day oral, blood eosinophils higher than 300 cells/μL (M: 95)"}, "[4]": {"details": "masitinib 6 mg/kg/day oral, blood eosinophils lower than 150 cells/μL (M: 59)"}, "[5]": {"details": "masitinib 6 mg/kg/day oral, blood eosinophils ranging from 150 to 300 cells/μL (M: 86)"}, "[6]": {"details": "masitinib vs placebo, blood eosinophils equal to or higher than 150 cells/μL"}, "[7]": {"details": "masitinib vs placebo, blood eosinophils equal to or lower than 300 cells/μL"}, "[8]": {"details": "masitinib vs placebo, blood eosinophils higher than 300 cells/μL"}, "[9]": {"details": "masitinib vs placebo, blood eosinophils lower than 150 cells/μL"}, "[10]": {"details": "masitinib vs placebo, blood eosinophils ranging from 150 to 300 cells/μL"}, "[11]": {"details": "masitinib vs placebo, blood eosinophils equal to or higher than 300 cells/μL"}}}
{"smiles": "Cc1ccc(NC(=O)c2ccc(CN3CCN(C)CC3)cc2)cc1Nc1nc(-c2cccnc2)cs1", "note": "[Masitinib, 4-(4-methylpiperazin-1-ylmethyl)-N-[4-methyl-3-(4-pyridin-3ylthiazol-2-ylamino)phenyl]benzamide]", "values": [{"measurement": "Yearly Exacerbation Rate", "setting": "masitinib 6 mg/kg/day oral, blood eosinophils equal to or higher than 150 cells/μL", "result": "0.34 severe exacerbations per year"}, {"measurement": "Number of Severe Exacerbations", "setting": "[1]", "result": 67}, {"measurement": "n: number of subjects who experienced severe exacerbation", "setting": "[1]", "result": "(n = 39)"}, {"measurement": "exacerbation rate", "setting": "masitinib 6 mg/kg/day oral, blood eosinophils equal to or higher than 300 cells/μL (95 patients)", "result": "0.29 severe exacerbations per year"}, {"measurement": "Yearly Exacerbation Rate", "setting": "masitinib 6 mg/kg/day oral, blood eosinophils equal to or lower than 300 cells/μL", "result": 0.37}, {"measurement": "Number of Severe Exacerbations", "setting": "[2]", "result": 65}, {"measurement": "n: number of subjects who experienced severe exacerbation", "setting": "[2]", "result": "(n = 35)"}, {"measurement": "Yearly Exacerbation Rate", "setting": "masitinib 6 mg/kg/day oral, blood eosinophils higher than 300 cells/μL", "result": 0.29}, {"measurement": "Number of Severe Exacerbations", "setting": "[3]", "result": 29}, {"measurement": "n: number of subjects who experienced severe exacerbation", "setting": "[3]", "result": "(n = 19)"}, {"measurement": "Yearly Exacerbation Rate", "setting": "masitinib 6 mg/kg/day oral, blood eosinophils lower than 150 cells/μL", "result": "0.36 severe exacerbations per year"}, {"measurement": "Number of Severe Exacerbations", "setting": "[4]", "result": 27}, {"measurement": "n: number of subjects who experienced severe exacerbation", "setting": "[4]", "result": "(n = 15)"}, {"measurement": "Yearly Exacerbation Rate", "setting": "masitinib 6 mg/kg/day oral, blood eosinophils ranging from 150 to 300 cells/μL", "result": "0.38 severe exacerbations per year"}, {"measurement": "Number of Severe Exacerbations", "setting": "[5]", "result": 38}, {"measurement": "n: number of subjects who experienced severe exacerbation", "setting": "[5]", "result": "(n = 20)"}, {"measurement": "Rate ratio (Estimate) for asthma exacerbations", "setting": "[6]", "result": 0.66}, {"measurement": "Rate ratio (Estimate) for asthma exacerbations", "setting": "[7]", "result": 0.81}, {"measurement": "Rate ratio (Estimate) for asthma exacerbations", "setting": "[8]", "result": 0.59}, {"measurement": "Rate ratio (Estimate) for asthma exacerbations", "setting": "[9]", "result": 0.97}, {"measurement": "Rate ratio (Estimate) for asthma exacerbations", "setting": "[10]", "result": 0.72}, {"measurement": "Reduction in Severe Exacerbation", "setting": "[6]", "result": 34, "unit": "%"}, {"measurement": "Reduction in Severe Exacerbation", "setting": "masitinib vs placebo, blood eosinophils equal to or higher than 150 cells/μL, listed as masitinib", "result": 33, "unit": "%"}, {"measurement": "rate ratio for asthma exacerbations", "setting": "[11]", "result": 0.59}, {"measurement": "reduction (improvement) in severe exacerbation", "setting": "[11]", "result": 41, "unit": "%"}, {"measurement": "Reduction in Severe Exacerbation", "setting": "[7]", "result": 19, "unit": "%"}, {"measurement": "Reduction in Severe Exacerbation", "setting": "[8]", "result": 41, "unit": "%"}, {"measurement": "Reduction in Severe Exacerbation", "setting": "[9]", "result": 3, "unit": "%"}, {"measurement": "difference in exacerbation rate versus placebo", "setting": "[9]", "result": "no discernable difference"}, {"measurement": "Reduction in Severe Exacerbation", "setting": "masitinib vs placebo, blood eosinophils lower than 150 cells/μL, listed as masitinib", "result": 3, "unit": "%"}, {"measurement": "Reduction in Severe Exacerbation", "setting": "[10]", "result": 28, "unit": "%"}, {"measurement": "Reduction in Severe Exacerbation", "setting": "masitinib vs placebo, blood eosinophils ranging from 150 to 300 cells/μL, listed as masitinib", "result": 28, "unit": "%"}]}
